In patent US9150537B2, “Bicyclic compound and use thereof for medical purposes” (ONO PHARMACEUTICAL CO., LTD., priority 2011, dated 2015):

Assays:
male dog (TOYO Beagle) = assay: Intraocular pressure lowering action in dog after ocular instillation; assay type: in vivo; settings: ocular instillation 30 μL, maximum among 2, 4, 6, 8, 24 hours, dose 30 μg/mL Example 16 (1), 50 μg/mL latanoprost
Procedure: (2-1) Intraocular Pressure Lowering Action
To one eye of a male dog (TOYO Beagle) which had been sufficiently acclimated in advance was ocular-instilled 30 μL of the compound of Example 16 (1) which had been adjusted with a base (containing citrate buffer pH 6.5, 0.5% polysorbate 80, 1% propylene glycol, 0.01% benzalkonium chloride) to 0.003% (w/v), respectively. The other eye was not treated. As a positive control compound, latanoprost which is the known compound was used.
Thereafter, an ocular surface anesthetic (Benoxil eye drops 0.4%, Santen Pharmaceutical Co., Ltd.) was subjected to ocular instillation to locally anesthetize eyes, and an intraocular pressure of each test compound before ocular instillation and after 2, 4, 6, 8, and 24 hours from ocular instillation was measured. An intraocular pressure was measured using a pneumatic applanation flat tonometer (Model 30 Classic, REICHERT). An intraocular pressure lowering rate (%) was calculated by the following equation.

[1] = test system: male rabbit (NewZealandWhite); assay: Aqueous humor protein concentration in rabbit after ocular instillation; assay type: in vivo; settings: ocular instillation 30 μL, 1000 μg/mL, 0 to 8 hours (FIG. 2)
Procedure: (§1) (2-2) Assessment of Ocular Stimulating Property and Aqueous Humor Protein Concentration
To one eye of a male rabbit (NewZealandWhite, 2.0 to 3.0 kg) was ocular-instilled 30 μL of the compound of Example 16 (1) which had been adjusted to 0.1% (w/v) with a base (containing citrate buffer pH 6.5, 0.5% polysorbate 80, 1% propylene glycol, 0.01% benzalkonium chloride), respectively. Thereafter, an aqueous humor in anterior chamber after 0, 1, 2, 4, 6 and 8 hours from ocular instillation was collected, and a protein concentration in the humor was measured. As comparative compounds, the aforementioned methyl ester of the compound of Example 12 described in Patent Literature 2 (i.e. compound of Example 10 described in Patent Literature 2) (hereinafter, abbreviated as Comparative Compound C in some cases) and the aforementioned methyl ester of the Comparative Compound B (i.e. optically active body (2S isomer) of the compound of Example 1 (F) described in Patent Literature 1) (hereinafter, abbreviated as Compound D in some cases) were used.
(§2) Regarding any test compound, a dose of 1000 μg/mL was administered and action of each active body was assessed.

[2] = test system: male rabbit (NewZealandWhite); assay: Assessment of ocular stimulating property (Draize score) in rabbit; assay type: in vivo; settings: ocular instillation 30 μL, 1000 μg/mL, observed 0 to 8 hours (FIG. 1)
Procedure: as §1
To one eye of a male rabbit (NewZealandWhite, 2.0 to 3.0 kg) was ocular-instilled 30 μL of the compound of Example 16 (1) which had been adjusted to 0.1% (w/v) with a base (containing citrate buffer pH 6.5, 0.5% polysorbate 80, 1% propylene glycol, 0.01% benzalkonium chloride), respectively. Thereafter, an aqueous humor in anterior chamber after 0, 1, 2, 4, 6 and 8 hours from ocular instillation was collected, and a protein concentration in the humor was measured. […]
Observation of the ocular general state was performed after 0, 1, 2, 4, 6 and 8 hours from ocular instillation, and visual remark of cornea, iris, and conjunctiva was observed according to determination criteria of the Draize method. A total of points of the resulting assessment points of each item (=A1×B1×5+A2×5+(A3+B3+C3)×2) was assessed as a Draize score. […]
as §2

[3] = test system: male monkey (crab-eating monkey); assay: Intraocular pressure lowering action in monkey under consciousness; assay type: in vivo; settings: conscious crab-eating monkey, ocular instillation 30 μL, 10 μg/mL Comparative Compound C, 30 μg/mL Example 16 (1)
Procedure: (2-3) Intraocular Pressure Lowering Action in Monkey Under Consciousness
To a left eye of a male monkey (crab-eating monkey) under consciousness was ocular instillation-administered 30 μL of a solution obtained by adjusting a test substance using the same base as that described above and, to a right eye was ocular instillation-administered 30 μL of a solution of only a base as a control, respectively. An intraocular pressure after administration was measured with time from administration initiation to after 24 hours. Upon measurement of an intraocular pressure, a crab-eating monkey was fixed on a monkey chair, and the monkey was anesthetized by ocular instillation-administering an ocular surface anesthetic (Benoxil eye drops 0.4% Santen Pharmaceutical Co., Ltd.). After mounting of a blepharostat (Handaya Co., Ltd.), an intraocular pressure of both eyes was measured (5 to 8 examples per group) using a pneumatic applanation flat tonometer (Model 30 Classic, REICHERT). A difference in an intraocular pressure value between control eyes and eyes to which a test substance had been administered, was calculated as an intraocular pressure lowering rate using the following equation, and sustainability of intraocular eye lowering action was assessed using a maximum intraocular pressure lowering rate during measurement and an intraocular pressure lowering rate after 24 hours. […]

mouse EP4 receptor = molecular target: T1, mouse EP4 receptor (Mus musculus, UniProt P32240); assay: Measurement of EP4 agonist activity (cAMP concentration) in EP4-CHO cells; assay type: cell-based; settings: cAMP production, read-out: Agonist activity on various prostanoid receptors: EC50 value, EP4
T1 construct: expressed in transfected cells; host or cells: CHO (EP4-CHO)
T1 sequence (P32240 whole entry): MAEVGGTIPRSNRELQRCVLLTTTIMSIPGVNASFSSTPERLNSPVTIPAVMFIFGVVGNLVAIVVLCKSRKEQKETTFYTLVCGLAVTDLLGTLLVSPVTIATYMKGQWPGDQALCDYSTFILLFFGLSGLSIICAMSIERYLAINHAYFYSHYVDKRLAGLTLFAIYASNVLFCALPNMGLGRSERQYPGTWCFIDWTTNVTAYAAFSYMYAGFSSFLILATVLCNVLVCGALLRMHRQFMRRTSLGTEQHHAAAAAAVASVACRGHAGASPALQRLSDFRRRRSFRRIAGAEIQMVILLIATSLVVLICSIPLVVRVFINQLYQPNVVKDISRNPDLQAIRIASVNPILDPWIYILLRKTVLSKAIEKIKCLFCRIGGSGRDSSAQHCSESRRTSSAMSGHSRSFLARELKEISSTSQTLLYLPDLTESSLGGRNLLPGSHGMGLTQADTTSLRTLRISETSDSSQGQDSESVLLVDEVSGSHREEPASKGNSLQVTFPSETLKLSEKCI
Text: (§3) (1-1) Measurement of Agonist Activity on Various Mouse Prostanoid Receptors
(§4) Using CHO cells (FP-CHO, EP2-CHO, EP4-CHO and IP-CHO, respectively) in which various mouse prostanoid receptors were forcibly expressed, respectively, agonist activity of test compounds on various prostanoid receptors was studied employing an intracellular calcium concentration regarding FP, and an intracellular cyclic AMP (hereinafter, abbreviated as cAMP) production amount regarding IP, EP2 and EP4 as an index.
(§5) The test compound and a control substance (PGE2, PGF2α, and iroprost) were dissolved with dimethyl sulfoxide (DMSO) to prepare a 10 mmol/L solution. Regarding the prepared 10 mmol/L solution, upon use, the 10 mmol/L solution was thawed, stepwisely-diluted using DMSO, and diluted with a buffer solution for measurement or a buffer solution for measurement 2, which was subjected to an experiment.
(§6) Cells forcibly expressing various mouse prostanoid receptors were standing-cultured at 37° C. in the presence of 5% CO2 using an α-MEM medium (Sigma) (for culturing FP-CHO, EP2-CHO and EP4-CHO) containing inactivated (56° C., 30 minutes) 9.8 vol % dialysed-FBS (Invitrogen) and penicillin-streptomycin-glutamine (GIBCO-BRL), or nucleic acid-containing α-MEM (Sigma) (for culturing IP-CHO) containing inactivated (56° C., 30 minutes) 9.8 vol % dialysed-FBS (Invitrogen) and penicillin-streptomycin glutamine (Invitrogen). Subculturing was performed by the following method.
(§7) The medium was removed, and washed with a phosphate-buffered physiological saline not containing Ca^2+ and Mg^2+ once. A suitable amount of trypsin-EDTA (Invitrogen) was added, this was incubated at 37° C. for about 3 minutes, cells were peeled, and a medium having a volume which is 10-fold a volume of trypsin-EDTA was added to stop an enzymatic reaction. After cells were recovered (120 g) into a centrifuging tube, and centrifuged at room temperature for 3 minutes, the supernatant was removed. Cells were suspended in a suitable amount of a medium, and seeded in a culturing flask. […]

mouse EP2 receptor = molecular target: T2, mouse EP2 receptor (Mus musculus, UniProt Q62053); assay: Measurement of EP2 agonist activity (cAMP concentration) in EP2-CHO cells; assay type: cell-based; settings: cAMP production, read-out: Agonist activity on various prostanoid receptors: EC50 value, EP2
T2 construct: expressed in transfected cells; host or cells: CHO (EP2-CHO)
T2 sequence (Q62053 whole entry): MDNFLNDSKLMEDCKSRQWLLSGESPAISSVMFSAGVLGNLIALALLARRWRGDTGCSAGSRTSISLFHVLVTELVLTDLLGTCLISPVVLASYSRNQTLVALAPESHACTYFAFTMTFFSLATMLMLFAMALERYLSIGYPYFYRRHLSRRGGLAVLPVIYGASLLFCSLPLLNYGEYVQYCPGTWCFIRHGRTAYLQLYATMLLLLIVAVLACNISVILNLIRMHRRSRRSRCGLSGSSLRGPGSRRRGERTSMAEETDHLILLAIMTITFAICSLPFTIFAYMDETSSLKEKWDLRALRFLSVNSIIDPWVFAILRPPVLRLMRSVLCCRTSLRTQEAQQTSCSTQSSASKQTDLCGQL
Text: as §3, §4, §5, §6, §7

mouse FP receptor = molecular target: T3, mouse FP receptor (Mus musculus, UniProt P43117); assay: Measurement of FP agonist activity (intracellular calcium concentration) in FP-CHO cells; assay type: cell-based; settings: read-out: Agonist activity on various prostanoid receptors: EC50 value, FP
T3 construct: expressed in transfected cells; host or cells: CHO (FP-CHO)
T3 sequence (P43117 whole entry): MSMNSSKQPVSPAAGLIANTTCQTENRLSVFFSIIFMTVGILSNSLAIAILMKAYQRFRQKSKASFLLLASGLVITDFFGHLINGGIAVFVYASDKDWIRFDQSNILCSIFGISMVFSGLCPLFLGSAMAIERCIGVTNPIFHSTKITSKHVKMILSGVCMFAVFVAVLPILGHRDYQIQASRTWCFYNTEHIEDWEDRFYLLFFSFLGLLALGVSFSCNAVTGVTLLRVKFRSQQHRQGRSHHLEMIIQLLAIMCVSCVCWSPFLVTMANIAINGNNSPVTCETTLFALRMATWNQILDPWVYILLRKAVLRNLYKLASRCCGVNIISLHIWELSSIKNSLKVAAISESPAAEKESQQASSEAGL
Text: as §3, §4
as §5, with “experiment. […]” for “experiment.”
The 96-well UV plate was set in a fluorescent spectral photometer (FDSS-3000, Hamamatsu Photonics K.K.), and an intracellular calcium concentration was measured. […]

mouse IP receptor = molecular target: T4, mouse IP receptor (Mus musculus, UniProt P43252); assay: Measurement of IP agonist activity (cAMP concentration) in IP-CHO cells; assay type: cell-based; settings: cAMP production, read-out: Agonist activity on various prostanoid receptors: EC50 value, IP
T4 construct: expressed in transfected cells; host or cells: CHO (IP-CHO)
T4 sequence (P43252 whole entry): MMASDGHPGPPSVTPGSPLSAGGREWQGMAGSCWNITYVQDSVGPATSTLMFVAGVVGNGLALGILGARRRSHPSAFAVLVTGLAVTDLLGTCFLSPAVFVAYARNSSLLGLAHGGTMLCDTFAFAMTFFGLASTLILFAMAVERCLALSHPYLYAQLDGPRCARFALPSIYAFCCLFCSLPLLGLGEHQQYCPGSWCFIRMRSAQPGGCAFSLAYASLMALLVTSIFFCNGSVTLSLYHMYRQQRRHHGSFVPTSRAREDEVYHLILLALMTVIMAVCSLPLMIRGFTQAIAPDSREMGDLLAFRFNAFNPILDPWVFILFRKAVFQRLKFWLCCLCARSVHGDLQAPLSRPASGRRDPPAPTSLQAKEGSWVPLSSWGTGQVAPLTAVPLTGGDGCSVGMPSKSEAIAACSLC
Text: as §3, §4
as §5, with “experiment. […]” for “experiment.”

SMILES	Maximum of intraocular pressure lowering rate (male dog (TOYO Beagle))	Action on protein concentration in aqueous humor [1]	Classification of ocular stimulating property from maximum of the Draize score [2]	Intraocular pressure lowering rate after 24 hours ([3]; 24 hours)	Maximum intraocular pressure lowering rate [3]	EC50 (mouse EP4 receptor)	EC50 (mouse EP2 receptor)	EC50 (mouse FP receptor)	EC50 (mouse IP receptor)
CC(C)OC(=O)CCC[C@H]1CC[C@@H]2[C@@H](/C=C/[C@@H](O)COc3ccccc3)[C@H](O)C[C@@H]2S1 [Example 16 (1), 2-Propanyl 4-{(2S,4aR,5R,6R,7aS)-6-hydroxy-5-[(1E,3R)-3-hydroxy-4-phenoxy-1-buten-1-yl]octahydrocyclopenta[b]thiopyran-2-yl}butanoate]	34.2%	no action of raising a protein concentration in an aqueous humor	non-stimulating substance (A Draize score of 0 or more and 5 or less was a non-stimulating substance)	23.1 ± 2.7%	25.3 ± 2.4%				
O=C(O)CCC[C@H]1CC[C@@H]2[C@@H](/C=C/[C@@H](O)COc3ccccc3)[C@H](O)C[C@@H]2O1 [Comparative Compound A]						6100 nM	> 100000 nM		
CCCCC[C@H](O)/C=C/[C@@H]1[C@H]2CC[C@H](CCCC(=O)O)S[C@H]2C[C@H]1O [Comparative Compound B, 4-{(2S,4aR,5R,6R,7aS)-6-hydroxy-5-[(1E,3S)-3-hydroxy-1-octen-1-yl]octahydrocyclopenta[b]thiopyran-2-yl}butanoic acid, reference compound]						380 nM	22 nM	8.9 nM	890 nM
O=C(O)CCC[C@H]1CC[C@@H]2[C@@H](/C=C/[C@@H](O)COc3ccccc3)[C@H](O)C[C@@H]2S1 [Example 15, 4-{(2S,4aR,5R,6R,7aS)-6-hydroxy-5-[(1E,3R)-3-hydroxy-4-phenoxy-1-buten-1-yl]octahydrocyclopenta[b]thiopyran-2-yl}butanoic acid]						> 100000 nM	> 100000 nM	3.4 nM	6100 nM
